Results on 8 compounds are retold here after ChEMBL document CHEMBL5143550, “Thiol- and Disulfide-Containing Vancomycin Derivatives Against Bacterial Resistance and Biofilm Formation” (2021).

What all share (assay type): functional
In test [1] the test system is Enterococcus faecalis. The experiment in a line: Antibiofilm activity against VanB-resistant Enterococcus faecalis ATCC 51299 assessed as inhibition of biofilm formation in BHIG medium incubated for 24 hrs by resazurin assay. On the technique in general: The colour change of resazurin is a common sign of viable cells or microbes.
Test [2] relates to Enterococcus faecalis. The test can be described thus: Antibacterial activity against VanB-resistant Enterococcus faecalis ATCC 51299 assessed as inhibition of bacterial growth in BHIG medium incubated for 24 hrs by resazurin assay.
The subject of test [3] is Enterococcus faecalis. The experiment in a line: Antibiofilm activity against VanB-resistant Enterococcus faecalis ATCC 51299 assessed as inhibition of biofilm formation by measuring decrease in RFU in BHIG medium incubated for 24 hrs by resazurin assay.
A further test relates to Enterococcus gallinarum. The test can be described thus: Antibacterial activity against VanC-resistant Enterococcus gallinarum ATCC 700221 assessed as inhibition of bacterial growth by standard broth microdilution susceptibility method. (In general: In broth dilution the organism is exposed to a series of concentrations in liquid medium.)
The subject of test [4] is Enterococcus faecalis. The test can be described thus: Antibacterial activity against VanB-resistant Enterococcus faecalis ATCC 51299 assessed as inhibition of bacterial growth by standard broth microdilution susceptibility method.
The subject of test [5] is Staphylococcus aureus. The test can be described thus: Antibacterial activity against methicillin-resistant Staphylococcus aureus ATCC 43300 assessed as inhibition of bacterial growth by standard broth microdilution susceptibility method.
Test [6] concerns Enterococcus faecalis. The test can be described thus: Antibacterial activity against VanB-resistant Enterococcus faecalis ATCC 51299 assessed as inhibition of colony formation in BHIG medium incubated for 24 hrs by resazurin assay.
The test system of test [7] is Staphylococcus aureus. The test can be described thus: Antibacterial activity against Staphylococcus aureus ATCC 25923 assessed as inhibition of bacterial growth by standard broth microdilution susceptibility method.
In another test the test system is Streptococcus pneumoniae. The test can be described thus: Antibacterial activity against […] assessed as inhibition of bacterial growth by standard broth microdilution susceptibility method.
In the next test the test system is Enterococcus faecium. The experiment in a line: Antibacterial activity against VanA-resistant Enterococcus faecium MMX0485 assessed as inhibition of bacterial growth by standard broth microdilution susceptibility method.
Another test concerns Moraxella catarrhalis. The test can be described thus: Antibacterial activity against Moraxella catarrhalis ATCC 8193 assessed as inhibition of bacterial growth by standard broth microdilution susceptibility method.
A further test deals with Clostridioides difficile. The experiment in a line: Antibacterial activity against Clostridium difficile ATCC 43255 assessed as inhibition of bacterial growth by standard broth microdilution susceptibility method.
Test [8] has as its system Staphylococcus aureus. The test can be described thus: Antibacterial activity against heterogenous vancomycin-intermediate Staphylococcus aureus ATCC NRS24 assessed as inhibition of bacterial growth by standard broth microdilution susceptibility method.
For test [9], the system named is Staphylococcus aureus. The test can be described thus: Antibacterial activity against vancomycin-intermediate Staphylococcus aureus ATCC NRS1 assessed as inhibition of bacterial growth by standard broth microdilution susceptibility method.

In brackets after ≈: the same amount, converted by molar mass. Some results are limits rather than exact numbers.

By MIC is commonly meant the lowest concentration that inhibits growth of the organism.

Regarding `CN[C@H](CC(C)C)C(=O)N[C@H]1C(=O)N[C@@H](CC(N)=O)C(=O)N[C@H]2C(=O)N[C@H]3C(=O)N[C@H](C(=O)N[C@H](C(=O)NCCOCCNC(=O)CCCCC4CCSS4)c4cc(O)cc(O)c4-c4cc3ccc4O)[C@H](O)c3ccc(c(Cl)c3)Oc3cc2cc(c3O[C@@H]2O[C@H](CO)[C@@H](O)[C@H](O)[C@H]2O[C@H]2C[C@](C)(N)[C@H](O)[C@H](C)O2)Oc2ccc(cc2Cl)[C@H]1O` (stereo partly drawn), the MBIC in the test on Enterococcus faecalis [1] was determined as 8 µg/mL. Moreover, the entries for the “inhibition (INH)” value in the test with Enterococcus faecalis [2] and in the test on Enterococcus faecalis [3] were 100% and 97%, respectively. Further, the MIC with Enterococcus gallinarum stood at 8 µg/mL (≈ 4.64 µM); in the test with Enterococcus faecalis [4], 4 µg/mL (≈ 2.32 µM); in the test with Staphylococcus aureus [5], 2 µg/mL (≈ 1.16 µM); in the test on Staphylococcus aureus [7] it was 4 µg/mL (≈ 2.32 µM). The Activity in the test with Enterococcus faecalis [6] was 8 µg/mL.

On to `CN[C@H](CC(C)C)C(=O)N[C@H]1C(=O)N[C@@H](CC(N)=O)C(=O)N[C@H]2C(=O)N[C@H]3C(=O)N[C@H](C(=O)N[C@H](C(=O)NCCSSc4ccccn4)c4cc(O)cc(O)c4-c4cc3ccc4O)[C@H](O)c3ccc(c(Cl)c3)Oc3cc2cc(c3O[C@@H]2O[C@H](CO)[C@@H](O)[C@H](O)[C@H]2O[C@H]2C[C@](C)(N)[C@H](O)[C@H](C)O2)Oc2ccc(cc2Cl)[C@H]1O`, for which the MBIC in the test on Enterococcus faecalis [1] is 16 µg/mL. Besides, the MIC in the test with Streptococcus pneumoniae was 0.5 µg/mL (≈ 0.309 µM); with Enterococcus faecium, 8 µg/mL (≈ 4.95 µM); with Moraxella catarrhalis, more than 32 µg/mL; in the test with Clostridioides difficile, 0.5 µg/mL (≈ 0.309 µM); in the test on Enterococcus gallinarum, 8 µg/mL (≈ 4.95 µM); with Enterococcus faecalis [4], 16 µg/mL (≈ 9.89 µM). For the same compound, the MIC with Staphylococcus aureus [8] came out at 4 µg/mL (≈ 2.47 µM); in the test on Staphylococcus aureus [5], 2 µg/mL (≈ 1.24 µM); with Staphylococcus aureus [7], 4 µg/mL (≈ 2.47 µM); in the test with Staphylococcus aureus [9] it was 4 µg/mL (≈ 2.47 µM). In addition, the figures for the “inhibition (INH)” value in the test on Enterococcus faecalis [2] and in the test with Enterococcus faecalis [3] were 100% and 99%, respectively. For the same compound, the Activity with Enterococcus faecalis [6] came out at 16 µg/mL.

In the case of `CCSSCCNC(=O)[C@H]1NC(=O)[C@H]2NC(=O)[C@H](NC(=O)[C@@H]3NC(=O)[C@H](CC(N)=O)NC(=O)[C@H](NC(=O)[C@@H](CC(C)C)NC)[C@H](O)c4ccc(c(Cl)c4)Oc4cc3cc(c4O[C@@H]3O[C@H](CO)[C@@H](O)[C@H](O)[C@H]3O[C@H]3C[C@](C)(N)[C@H](O)[C@H](C)O3)Oc3ccc(cc3Cl)[C@H]2O)c2ccc(O)c(c2)-c2c(O)cc(O)cc21`, the MBIC in the test with Enterococcus faecalis [1] came out at 32 µg/mL. Moreover, the “inhibition (INH)” value in the test on Enterococcus faecalis [2] and in the test on Enterococcus faecalis [3] was 100% each time. For the same compound, the MIC in the test on Enterococcus gallinarum amounted to 8 µg/mL (≈ 5.1 µM); with Enterococcus faecalis [4], 1 µg/mL (≈ 0.638 µM); in the test with Staphylococcus aureus [5], 1 µg/mL (≈ 0.638 µM); with Staphylococcus aureus [7] it was 1 µg/mL (≈ 0.638 µM). In addition, the Activity with Enterococcus faecalis [6] stood at 32 µg/mL.

In the case of `CN[C@H](CC(C)C)C(=O)N[C@H]1C(=O)N[C@@H](CC(N)=O)C(=O)N[C@H]2C(=O)N[C@H]3C(=O)N[C@H](C(=O)N[C@H](C(=O)NCCCCCCCCS)c4cc(O)cc(O)c4-c4cc3ccc4O)[C@H](O)c3ccc(c(Cl)c3)Oc3cc2cc(c3O[C@@H]2O[C@H](CO)[C@@H](O)[C@H](O)[C@H]2O[C@H]2C[C@](C)(N)[C@H](O)[C@H](C)O2)Oc2ccc(cc2Cl)[C@H]1O`, the MBIC with Enterococcus faecalis [1] is 8 µg/mL. Moreover, the MIC stood at 0.5 µg/mL (≈ 0.314 µM) with Streptococcus pneumoniae; 2 µg/mL (≈ 1.26 µM) with Enterococcus faecium; 8 µg/mL (≈ 5.02 µM) with Moraxella catarrhalis; 4 µg/mL (≈ 2.51 µM) in the test with Clostridioides difficile; 8 µg/mL (≈ 5.02 µM) with Enterococcus gallinarum; 8 µg/mL (≈ 5.02 µM) with Enterococcus faecalis [4]. Also, the MIC in the test on Staphylococcus aureus [8] is 2 µg/mL (≈ 1.26 µM); in the test with Staphylococcus aureus [5] it was 4 µg/mL (≈ 2.51 µM); in the test on Staphylococcus aureus [7], 4 µg/mL (≈ 2.51 µM); in the test with Staphylococcus aureus [9] it was 2 µg/mL (≈ 1.26 µM). Besides, the results for the “inhibition (INH)” value with Enterococcus faecalis [2] and in the test with Enterococcus faecalis [3] were 100% and 98%, respectively. Besides, in the test with Enterococcus faecalis [6], the Activity was 8 µg/mL.

Regarding `CN[C@H](CC(C)C)C(=O)N[C@H]1C(=O)N[C@@H](CC(N)=O)C(=O)N[C@H]2C(=O)N[C@H]3C(=O)N[C@H](C(=O)N[C@H](C(=O)NCCSSCCNC(=O)CCCCC4CCSS4)c4cc(O)cc(O)c4-c4cc3ccc4O)[C@H](O)c3ccc(c(Cl)c3)Oc3cc2cc(c3O[C@@H]2O[C@H](CO)[C@@H](O)[C@H](O)[C@H]2O[C@H]2C[C@](C)(N)[C@H](O)[C@H](C)O2)Oc2ccc(cc2Cl)[C@H]1O` (stereo partly drawn), in the test with Enterococcus faecalis [1], the MBIC is 16 µg/mL. Further, the MIC was 0.25 µg/mL (≈ 0.141 µM) in the test on Streptococcus pneumoniae; more than 32 µg/mL in the test with Enterococcus faecium; 8 µg/mL (≈ 4.52 µM) in the test on Moraxella catarrhalis; 0.5 µg/mL (≈ 0.282 µM) with Clostridioides difficile; 8 µg/mL (≈ 4.52 µM) in the test with Enterococcus gallinarum; 4 µg/mL (≈ 2.26 µM) with Enterococcus faecalis [4]. The MIC in the test with Staphylococcus aureus [8], in the test with Staphylococcus aureus [5], in the test on Staphylococcus aureus [7] and in the test on Staphylococcus aureus [9] was 2 µg/mL (≈ 1.13 µM) in each case. The “inhibition (INH)” value in the test on Enterococcus faecalis [2] and in the test with Enterococcus faecalis [3] was 100% throughout. For the same compound, in the test on Enterococcus faecalis [6], the Activity stood at 16 µg/mL.

For `CN[C@H](CC(C)C)C(=O)N[C@H]1C(=O)N[C@@H](CC(N)=O)C(=O)N[C@H]2C(=O)N[C@H]3C(=O)N[C@H](C(=O)N[C@H](C(=O)NCCSSCCNC(=O)CCS)c4cc(O)cc(O)c4-c4cc3ccc4O)[C@H](O)c3ccc(c(Cl)c3)Oc3cc2cc(c3O[C@@H]2O[C@H](CO)[C@@H](O)[C@H](O)[C@H]2O[C@H]2C[C@](C)(N)[C@H](O)[C@H](C)O2)Oc2ccc(cc2Cl)[C@H]1O`, the MBIC in the test with Enterococcus faecalis [1] worked out at 8 µg/mL. Also, the MIC was 0.25 µg/mL (≈ 0.15 µM) in the test with Streptococcus pneumoniae; 8 µg/mL (≈ 4.79 µM) in the test with Enterococcus faecium; 2 µg/mL (≈ 1.2 µM) with Moraxella catarrhalis; 1 µg/mL (≈ 0.598 µM) with Clostridioides difficile; 4 µg/mL (≈ 2.39 µM) with Enterococcus gallinarum; 2 µg/mL (≈ 1.2 µM) with Enterococcus faecalis [4]. Further, the MIC is 1 µg/mL (≈ 0.598 µM) with Staphylococcus aureus [8], 0.5 µg/mL (≈ 0.299 µM) in the test with Staphylococcus aureus [5], 0.5 µg/mL (≈ 0.299 µM) in the test on Staphylococcus aureus [7] and 1 µg/mL (≈ 0.598 µM) with Staphylococcus aureus [9]. Moreover, the “inhibition (INH)” value turned out to be 100% in the test with Enterococcus faecalis [2] and 97% in the test with Enterococcus faecalis [3]. In addition, the Activity in the test with Enterococcus faecalis [6] amounted to 8 µg/mL.

With `CN[C@H](CC(C)C)C(=O)N[C@H]1C(=O)N[C@@H](CC(N)=O)C(=O)N[C@H]2C(=O)N[C@H]3C(=O)N[C@H](C(=O)N[C@H](C(=O)NCCSSCCN)c4cc(O)cc(O)c4-c4cc3ccc4O)[C@H](O)c3ccc(c(Cl)c3)Oc3cc2cc(c3O[C@@H]2O[C@H](CO)[C@@H](O)[C@H](O)[C@H]2O[C@H]2C[C@](C)(N)[C@H](O)[C@H](C)O2)Oc2ccc(cc2Cl)[C@H]1O`, the MBIC in the test with Enterococcus faecalis [1] came out at 16 µg/mL. Also, the MIC in the test with Streptococcus pneumoniae was not above 0.03 µg/mL; in the test on Enterococcus faecium, 8 µg/mL (≈ 5.05 µM); in the test on Moraxella catarrhalis, more than 32 µg/mL; in the test on Clostridioides difficile it was 0.5 µg/mL (≈ 0.316 µM); with Enterococcus gallinarum it was 8 µg/mL (≈ 5.05 µM); in the test on Enterococcus faecalis [4] it was 8 µg/mL (≈ 5.05 µM). Moreover, the MIC with Staphylococcus aureus [8], in the test with Staphylococcus aureus [5], with Staphylococcus aureus [7] and with Staphylococcus aureus [9] was 1 µg/mL (≈ 0.631 µM) in each case. Besides, the “inhibition (INH)” value was 98% with Enterococcus faecalis [2] and 86% in the test on Enterococcus faecalis [3]. The Activity in the test with Enterococcus faecalis [6] came to 16 µg/mL.

Regarding `CN[C@H](CC(C)C)C(=O)N[C@H]1C(=O)N[C@@H](CC(N)=O)C(=O)N[C@H]2C(=O)N[C@H]3C(=O)N[C@H](C(=O)N[C@H](C(=O)O)c4cc(O)cc(O)c4-c4cc3ccc4O)[C@H](O)c3ccc(c(Cl)c3)Oc3cc2cc(c3O[C@@H]2O[C@H](CO)[C@@H](O)[C@H](O)[C@H]2O[C@H]2C[C@](C)(N)[C@H](O)[C@H](C)O2)Oc2ccc(cc2Cl)[C@H]1O` [VANCOMYCIN], the MBIC in the test with Enterococcus faecalis [1] was 64 µg/mL. For the same compound, the MIC in the test with Streptococcus pneumoniae was 0.12 µg/mL (≈ 0.0828 µM); with Enterococcus faecium it was more than 128 µg/mL; in the test with Moraxella catarrhalis, more than 32 µg/mL; in the test on Clostridioides difficile it was 0.12 µg/mL (≈ 0.0828 µM); in the test on Enterococcus gallinarum it was 8 µg/mL (≈ 5.52 µM); in the test with Enterococcus faecalis [4] it was 16 µg/mL (≈ 11 µM). In addition, the MIC with Staphylococcus aureus [8] amounted to 16 µg/mL (≈ 11 µM); in the test on Staphylococcus aureus [9], 8 µg/mL (≈ 5.52 µM). The “inhibition (INH)” value in the test with Enterococcus faecalis [2] is 100%; in the test with Enterococcus faecalis [3], 98%. Moreover, in the test with Enterococcus faecalis [6], the Activity came out at 64 µg/mL.
